This note sets out measurements from ChEMBL document CHEMBL1128903, “Atropisomeric carbamoyl type inhibitors of pancreatic cholesterol esterase” (Bioorg Med Chem Lett, 1996).

Assay [1] deals with T1, Bile salt-activated lipase (Bos taurus) (UniProt P30122).
T1 sequence (whole entry): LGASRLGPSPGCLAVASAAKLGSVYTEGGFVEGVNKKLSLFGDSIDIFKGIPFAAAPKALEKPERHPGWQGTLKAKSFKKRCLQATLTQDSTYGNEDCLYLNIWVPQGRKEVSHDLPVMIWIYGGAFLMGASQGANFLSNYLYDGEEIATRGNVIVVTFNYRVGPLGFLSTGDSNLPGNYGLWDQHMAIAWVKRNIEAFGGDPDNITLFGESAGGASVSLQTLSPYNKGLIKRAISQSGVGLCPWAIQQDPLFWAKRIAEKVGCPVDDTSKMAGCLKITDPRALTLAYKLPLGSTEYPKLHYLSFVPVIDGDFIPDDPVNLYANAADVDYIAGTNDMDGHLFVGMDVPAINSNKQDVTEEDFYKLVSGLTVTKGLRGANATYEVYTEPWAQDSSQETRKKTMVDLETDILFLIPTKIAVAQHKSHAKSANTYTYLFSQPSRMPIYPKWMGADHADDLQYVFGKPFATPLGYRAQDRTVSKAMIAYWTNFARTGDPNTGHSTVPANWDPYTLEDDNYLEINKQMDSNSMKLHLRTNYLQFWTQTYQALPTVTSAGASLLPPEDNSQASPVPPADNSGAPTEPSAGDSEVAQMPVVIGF
Description: Carbamylation constant (k2) for the Pancreatic cholesterol esterase-catalyzed hydrolysis of 4-nitrophenyl butyrate

In assay [2] the target is T2, Bile salt-activated lipase (Bos taurus, UniProt P30122).
T2 sequence (P30122 whole entry): T1 sequence (whole entry)
Nature of the assay: Dissociation constant (KI) for the Pancreatic cholesterol esterase-catalyzed hydrolysis of 4-nitrophenyl butyrate.

Assay [3] addresses T2, Bile salt-activated lipase. Nature of the assay: Bimolecular rate constant (ki) for the Pancreatic cholesterol esterase-catalyzed hydrolysis of 4-nitrophenyl butyrate.

Values joined by “and” are separate entries in the source; they are usually repeats but may differ in a detail not shown here. Equal values may be shown once.

Consider `CCCCNC(=O)Oc1ccc2ccccc2c1-c1c(OC(=O)NCCCC)ccc2ccccc12`, for which the k2 in assay [1] is 0.00095 10e3 s-1 and 0.0016 10e3 s-1 and 0.0012 10e3 s-1.
Consider `CCCCNC(=O)Oc1ccc2ccccc2c1-c1c(OC(=O)CCC)ccc2ccccc12`, for which, in assay [2], the Ki is 20 µM and 9 µM and 10 µM. For the same compound, the k2 in assay [1] was 0.0008 10e3 s-1 and 0.0006 10e3 s-1 (2×). Besides, in assay [3], the “Bimolecular rate constant (ki)” value was 40 10e2 M-1 s-1 and 80 10e2 M-1 s-1 and 60 10e2 M-1 s-1.
For the compound `CCCCNC(=O)Oc1ccc2ccccc2c1-c1c(O)ccc2ccccc12`, the Ki in assay [2] is 800 nM (2×) and 1.3 µM. Further, the k2 in assay [1] was 0.01 10e3 s-1 and 0.007 10e3 s-1 and 0.006 10e3 s-1. In addition, in assay [3], the “Bimolecular rate constant (ki)” value is 12000 10e2 M-1 s-1 and 10000 10e2 M-1 s-1 and 5000 10e2 M-1 s-1.
